The nature of data set [1]: Toxicity in BALB/c mouse infected with Candida albicans 901 assessed as pathological change in liver at 0.5 ug/g administered 6 times measured after 4 days by H and E staining based analysis. Particulars: in vivo, 96 h, dose 0.5 µg/g, time 4 day. The format is tissue-based.
In data set [2] the test system is Candida albicans. The data set can be described thus: Induction of apoptosis in Candida albicans SC5314 assessed as apoptotic cells incubated for 48 hrs by annexin V-FITC/PI staining based flow cytometry (reference value: 2.12 %). It is filed as functional. In general terms: Flow cytometry measures light scatter and fluorescence of single cells or particles in a stream.

Data set [3] has as its system Candida albicans. The data set can be described thus: Induction of morphological changes in Candida albicans SC5314 assessed as disappearance of nuclear domains measured for 96 to 144 hrs by TEM analysis. The format is functional, organism-based. Particulars: time 96-144 hrs.
Data set [4] concerns Candida albicans. The data set can be described thus: Induction of morphological changes in Candida albicans SC5314 assessed as accumulation of low-density granules measured for 96 to 144 hrs by TEM analysis. The format is functional, organism-based. Particulars: time 96-144 hrs.
The subject of data set [5] is Candida albicans. The data set can be described thus: Antifungal activity against FLC-resistant Candida albicans 632 assessed as fungal growth inhibition incubated for 72 hrs by CLSI based susceptibility test. It is filed as functional.
Data set [6] in a line: Toxicity in BALB/c mouse infected with Candida albicans 901 assessed as pathological change in spleen at 0.5 ug/g administered 6 times measured after 4 days by H and E staining based analysis. It is filed as tissue-based. Particulars: in vivo, 96 h, dose 0.5 µg/g, time 4 day.
Data set [7] deals with Mus musculus. The data set can be described thus: Antiinflammatory activity in BALB/c mouse infected with Candida albicans 901 assessed as decrease in IL-2 level at 0.5 ug/g administered 6 times measured after 4 days by IHC analysis. It is filed as functional, organism-based. Particulars: dose 0.5 µg/g, time 4.0 day.
Data set [8] is described as follows: Toxicity in BALB/c mouse infected with Candida albicans 901 assessed as toxic side effects at 0.5 ug/g administered 6 times measured after 4 days. Particulars: in vivo, 96 h, dose 0.5 µg/g, time 4 day.
Data set [9] relates to Candida albicans. The data set can be described thus: Antifungal activity against Candida albicans 901 infected in BALB/c mouse assessed as repair of tissue damage at 0.5 ug/g administered 6 times measured after 4 days by Masson staining based analysis. The format is functional, organism-based. Particulars: dose 0.5 µg/g, time 4.0 day.
Data set [10] in a line: Toxicity in BALB/c mouse infected with Candida albicans 901 assessed as plasma AST level at 0.5 ug/g administered 6 times measured after 4 days (reference value: 50.6 +/- 2.3 IU/L). Particulars: in vivo, 96 h, dose 0.5 µg/g, time 4 day.
Data set [11] relates to Mus musculus. The data set can be described thus: Antiinflammatory activity in BALB/c mouse infected with Candida albicans 901 assessed as decrease in INF-gamma level at 0.5 ug/g administered 6 times measured after 4 days by IHC analysis. The format is functional, organism-based. Particulars: dose 0.5 µg/g, time 4.0 day.
Data set [12] concerns Mus musculus. The data set can be described thus: Antiinflammatory activity in BALB/c mouse infected with Candida albicans 901 assessed as decrease in COX-2 level at 0.5 ug/g administered 6 times measured after 4 days by IHC analysis. It is filed as functional, organism-based. Particulars: dose 0.5 µg/g, time 4.0 day.
Data set [13] is described as follows: Toxicity in BALB/c mouse infected with Candida albicans 901 assessed as plasma ALT level at 0.5 ug/g administered 6 times measured after 4 days (reference value: 30.4 +/- 4.6 IU/L). Particulars: in vivo, 96 h, dose 0.5 µg/g, time 4 day.
Data set [14] concerns Candida albicans. The data set can be described thus: Antifungal activity against FLC-resistant Candida albicans 17# assessed as fungal growth inhibition incubated for 72 hrs by CLSI based susceptibility test. The format is functional.
In data set [15] the target is Lanosterol 14-alpha demethylase (Candida albicans (strain SC5314 / ATCC MYA-2876) (Yeast), UniProt P10613). The data set can be described thus: Inhibition of CYP51 in Candida albicans SC5314 assessed as ergosterol level at 4 ug/ml incubated for 16 hrs by GC-MS analysis (reference value: 92.07 %). On the set-up: scale not given: the % may be the effect or the level left. Particulars: at 4 µg/mL.

The subject of data set [16] is Candida albicans. The data set can be described thus: Induction of morphological changes in Candida albicans SC5314 assessed as leakage of cell contents measured for 96 to 144 hrs by TEM analysis. The format is functional, organism-based. Particulars: time 96-144 hrs.
For data set [17], the system named is Candida albicans. The data set can be described thus: Induction of morphological changes in Candida albicans SC5314 assessed as decrease in cell membrane thickness measured after 48 hrs by TEM analysis. The format is functional, organism-based.
Data set [18] relates to Candida albicans. The data set can be described thus: Antifungal activity against FLC-resistant Candida albicans 901 assessed as fungal growth inhibition incubated for 72 hrs by CLSI based susceptibility test. It is filed as functional.
The next data set has as its system Aspergillus fumigatus. The data set can be described thus: Antifungal activity against Aspergillus fumigatus KM8001 assessed as fungal growth inhibition incubated for 72 hrs by CLSI based susceptibility test. The format is functional.
Data set [19] is described as follows: Drug uptake in Candida albicans SC5314 assessed as increase in red fluorescence by PI staining based imaging analysis. The format is ADME.
Data set [20] relates to Candida albicans. The data set can be described thus: Antifungal activity against Candida albicans 901 infected in BALB/c mouse assessed as repair of tissue damage at 0.5 ug/g administered 6 times measured after 4 days by GMS staining based analysis. It is filed as functional, organism-based. Particulars: dose 0.5 µg/g, time 4.0 day.

Converted amounts (≈) assume the structure as drawn. The source made the active and inactive calls. The calls are words filed in the database; no cut-off is given here.

Chain of Lanosterol 14-alpha demethylase (P10613 whole entry): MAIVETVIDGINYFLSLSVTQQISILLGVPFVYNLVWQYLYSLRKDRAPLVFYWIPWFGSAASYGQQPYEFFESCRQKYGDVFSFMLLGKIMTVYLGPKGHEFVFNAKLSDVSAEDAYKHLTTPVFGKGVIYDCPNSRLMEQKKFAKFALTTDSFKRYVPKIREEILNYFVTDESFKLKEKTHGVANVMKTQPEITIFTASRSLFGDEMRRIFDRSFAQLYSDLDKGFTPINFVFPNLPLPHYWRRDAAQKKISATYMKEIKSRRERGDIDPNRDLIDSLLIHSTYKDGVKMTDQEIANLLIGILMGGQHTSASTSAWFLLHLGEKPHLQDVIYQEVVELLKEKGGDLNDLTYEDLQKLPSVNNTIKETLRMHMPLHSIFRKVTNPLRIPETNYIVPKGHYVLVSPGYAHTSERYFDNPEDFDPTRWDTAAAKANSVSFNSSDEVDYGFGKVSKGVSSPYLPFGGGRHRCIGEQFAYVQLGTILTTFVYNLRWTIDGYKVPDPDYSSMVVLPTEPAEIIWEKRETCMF

As a reminder, the MIC50 is the lowest concentration that inhibits either 50% of growth or 50% of the strains tested, depending on the study. As to `COC(=O)[C@@H](Cn1cncn1)NCc1cccc(OCc2cccc(-c3ccccc3)c2C)c1`, the Activity result is “Non-Toxic” in data set [1]; 25.91% with Candida albicans [2]; “Non-Toxic” in [6]; “Non-Toxic” in data set [8]; 57.4 IU/L in [10]; 21.5 IU/L in data set [13]. In data set [15], the Activity amounted to 9.72%. Also, the result in the data set with Candida albicans [3], with Candida albicans [4], in the data set with Mus musculus [7], with Candida albicans [9], in the data set with Mus musculus [11] and in the data set on Mus musculus [12] was Active. For the same molecule, the outcome with Candida albicans [16], in the data set with Candida albicans [17] and in the data set on Candida albicans [20] was Active. The MIC50 in the data set with Candida albicans [5] was 4 µg/mL (≈ 8.76 µM); in the data set with Candida albicans [14], 4 µg/mL (≈ 8.76 µM); with Candida albicans [18] it was 2 µg/mL (≈ 4.38 µM); with Aspergillus fumigatus it was 2 µg/mL (≈ 4.38 µM). In addition, the Drug uptake result in [19] is on record as “Active”.

For the origin of these results see ChEMBL document CHEMBL5365529, “Construction and Evaluation of Novel Dual-function Antifungal Inhibitors and Covalent Organic Framework Carriers Based on the Infection Microenvironment” (J Med Chem, 2023).
